# Measurements published in PubChem BioAssay AID1963829 (Molecular Pharmacology Branch, DTP, NCI, 2024).
# Tested on: 935938-334-R-J1-PDC complex spheroid viability
# Experiment: Anticancer human tumor 935938-334-R-J1-PDC patient-derived small intestine adenocarcinoma cell line growth inhibition [POLQ]
# Conditions: for IC50: curve of first compound; for viability, T/C: stronger effect = lower value
# How it was run: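 Three-cell-type spheroids modelling solid tumor plus stroma served as the readout system; POL inhibitors were tested individually and in combination, concentration ranges set by clinical Cmax where known.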
# [1] = second compound 0.0316 µM, first compound 0.0316 µM
# [2] = second compound 0.0316 µM, first compound 0.1 µM
# [3] = second compound 0.0316 µM, first compound 0.316 µM
# [4] = second compound 0.0316 µM, first compound 1 µM
# [5] = second compound 0.1 µM, first compound 0.0316 µM
# [6] = second compound 0.1 µM, first compound 0.1 µM
# [7] = second compound 0.1 µM, first compound 0.316 µM
# [8] = second compound 0.1 µM, first compound 1 µM
# [9] = second compound 0.316 µM, first compound 0.0316 µM
# [10] = second compound 0.316 µM, first compound 0.1 µM
# [11] = second compound 0.316 µM, first compound 0.316 µM
# [12] = second compound 0.316 µM, first compound 1 µM
# [13] = second compound 1 µM, first compound 0.0316 µM
# [14] = second compound 1 µM, first compound 0.1 µM
# [15] = second compound 1 µM, first compound 0.316 µM
# [16] = second compound 1 µM, first compound 1 µM
# [17] = second compound 3.16 µM, first compound 0.0316 µM
# [18] = second compound 3.16 µM, first compound 0.1 µM
# [19] = second compound 3.16 µM, first compound 0.316 µM
# [20] = second compound 3.16 µM, first compound 1 µM
# [21] = second compound 10 µM, first compound 0.0316 µM
# [22] = second compound 10 µM, first compound 0.1 µM
# [23] = second compound 10 µM, first compound 0.316 µM
# [24] = second compound 10 µM, first compound 1 µM
# 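Further: spheroids exposed to drugs for seven days before viability read.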
# 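Wherever viability, T/C is given: 100% = DMSO vehicle control wells.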
structure (smiles),measurement,setting,value
COc1cccc(OCCCN)c1-c1cc(Nc2cnc(C#N)cn2)n[nH]1 + Cc1cccc(N(C)C(=O)C2C(O)CCN2c2nc(C)cc(C(F)(F)F)c2C#N)c1,IC50,second compound 0.0316 µM,55.9 nM
same,IC50,second compound 0.1 µM,50.9 nM
same,IC50,second compound 0.316 µM,40.9 nM
same,IC50,second compound 1 µM,43.7 nM
same,IC50,second compound 3.16 µM,40 nM
same,IC50,second compound 10 µM,38.5 nM
same,"viability, T/C","second compound 0.0316 µM, first compound 0.00316 µM",118%
same,"viability, T/C","second compound 0.0316 µM, first compound 0.01 µM",94.9%
same,"viability, T/C",[1],65.2%
same,"viability, T/C",[2],36.8%
same,"viability, T/C",[3],12.2%
same,"viability, T/C",[4],8.59%
same,"viability, T/C","second compound 0.1 µM, first compound 0.00316 µM",101%
same,"viability, T/C","second compound 0.1 µM, first compound 0.01 µM",75.2%
same,"viability, T/C",[5],69.6%
same,"viability, T/C",[6],31%
same,"viability, T/C",[7],9.36%
same,"viability, T/C",[8],10.3%
same,"viability, T/C","second compound 0.316 µM, first compound 0.00316 µM",96%
same,"viability, T/C","second compound 0.316 µM, first compound 0.01 µM",95.2%
same,"viability, T/C",[9],48.1%
same,"viability, T/C",[10],35.3%
same,"viability, T/C",[11],10.1%
same,"viability, T/C",[12],10.6%
same,"viability, T/C","second compound 1 µM, first compound 0.00316 µM",106%
same,"viability, T/C","second compound 1 µM, first compound 0.01 µM",86%
same,"viability, T/C",[13],60.7%
same,"viability, T/C",[14],28.5%
same,"viability, T/C",[15],9.11%
same,"viability, T/C",[16],9.21%
same,"viability, T/C","second compound 3.16 µM, first compound 0.00316 µM",138%
same,"viability, T/C","second compound 3.16 µM, first compound 0.01 µM",90.6%
same,"viability, T/C",[17],69.5%
same,"viability, T/C",[18],15.7%
same,"viability, T/C",[19],8.96%
same,"viability, T/C",[20],11.1%
same,"viability, T/C","second compound 10 µM, first compound 0.00316 µM",96.5%
same,"viability, T/C","second compound 10 µM, first compound 0.01 µM",94.8%
same,"viability, T/C",[21],57.9%
same,"viability, T/C",[22],11.6%
same,"viability, T/C",[23],11.9%
same,"viability, T/C",[24],9.17%
CC1COCCN1c1cc(C2(O)CC3CCC(C2)O3)c2cnn(-c3ccn[nH]3)c2n1 (centres undefined) + Cc1cccc(N(C)C(=O)C2C(O)CCN2c2nc(C)cc(C(F)(F)F)c2C#N)c1,IC50,second compound 0.0316 µM,372 nM
same,IC50,second compound 0.1 µM,262 nM
same,IC50,second compound 0.316 µM,331 nM
same,IC50,second compound 1 µM,215 nM
same,IC50,second compound 3.16 µM,198 nM
same,IC50,second compound 10 µM,155 nM
same,"viability, T/C",[1],84%
same,"viability, T/C",[2],76.2%
same,"viability, T/C",[3],52.9%
same,"viability, T/C",[4],29.1%
same,"viability, T/C","second compound 0.0316 µM, first compound 3.16 µM",18.7%
same,"viability, T/C","second compound 0.0316 µM, first compound 10 µM",13.8%
same,"viability, T/C",[5],101%
same,"viability, T/C",[6],90.3%
same,"viability, T/C",[7],40.1%
same,"viability, T/C",[8],25.8%
same,"viability, T/C","second compound 0.1 µM, first compound 3.16 µM",17.7%
same,"viability, T/C","second compound 0.1 µM, first compound 10 µM",9.91%
same,"viability, T/C",[9],66.2%
same,"viability, T/C",[10],92.2%
same,"viability, T/C",[11],51.3%
same,"viability, T/C",[12],24.8%
same,"viability, T/C","second compound 0.316 µM, first compound 3.16 µM",18%
same,"viability, T/C","second compound 0.316 µM, first compound 10 µM",13.3%
same,"viability, T/C",[13],77.7%
same,"viability, T/C",[14],74.5%
same,"viability, T/C",[15],37%
same,"viability, T/C",[16],25.3%
same,"viability, T/C","second compound 1 µM, first compound 3.16 µM",18.9%
same,"viability, T/C","second compound 1 µM, first compound 10 µM",12.5%
same,"viability, T/C",[17],90.6%
same,"viability, T/C",[18],64.5%
same,"viability, T/C",[19],40.2%
same,"viability, T/C",[20],23.9%
same,"viability, T/C","second compound 3.16 µM, first compound 3.16 µM",20.6%
same,"viability, T/C","second compound 3.16 µM, first compound 10 µM",12.3%
same,"viability, T/C",[21],70.3%
same,"viability, T/C",[22],56.8%
same,"viability, T/C",[23],39.6%
same,"viability, T/C",[24],23.2%
same,"viability, T/C","second compound 10 µM, first compound 3.16 µM",17.2%
same,"viability, T/C","second compound 10 µM, first compound 10 µM",9.31%
